Results published in ChEMBL document CHEMBL5584224, “Recent advances in c-Met-based dual inhibitors in the treatment of cancers” (Eur J Med Chem, 2024).
One block for each compound: values may come before it.

Key:
[1] = test system: NCI-H3122; assay: Antiproliferative activity against human NCI-H3122 cells assessed as reduction in cell viability incubated for 48 hrs by MTT assay; format: functional, cell-based; settings: NCI-H3122, 48 h
[2] = Inhibition of TrxR (unknown origin); design: species or system Homo sapiens
[3] = target: Hepatocyte growth factor receptor (Homo sapiens, UniProt P08581)
Sequence of Hepatocyte growth factor receptor (P08581 whole entry): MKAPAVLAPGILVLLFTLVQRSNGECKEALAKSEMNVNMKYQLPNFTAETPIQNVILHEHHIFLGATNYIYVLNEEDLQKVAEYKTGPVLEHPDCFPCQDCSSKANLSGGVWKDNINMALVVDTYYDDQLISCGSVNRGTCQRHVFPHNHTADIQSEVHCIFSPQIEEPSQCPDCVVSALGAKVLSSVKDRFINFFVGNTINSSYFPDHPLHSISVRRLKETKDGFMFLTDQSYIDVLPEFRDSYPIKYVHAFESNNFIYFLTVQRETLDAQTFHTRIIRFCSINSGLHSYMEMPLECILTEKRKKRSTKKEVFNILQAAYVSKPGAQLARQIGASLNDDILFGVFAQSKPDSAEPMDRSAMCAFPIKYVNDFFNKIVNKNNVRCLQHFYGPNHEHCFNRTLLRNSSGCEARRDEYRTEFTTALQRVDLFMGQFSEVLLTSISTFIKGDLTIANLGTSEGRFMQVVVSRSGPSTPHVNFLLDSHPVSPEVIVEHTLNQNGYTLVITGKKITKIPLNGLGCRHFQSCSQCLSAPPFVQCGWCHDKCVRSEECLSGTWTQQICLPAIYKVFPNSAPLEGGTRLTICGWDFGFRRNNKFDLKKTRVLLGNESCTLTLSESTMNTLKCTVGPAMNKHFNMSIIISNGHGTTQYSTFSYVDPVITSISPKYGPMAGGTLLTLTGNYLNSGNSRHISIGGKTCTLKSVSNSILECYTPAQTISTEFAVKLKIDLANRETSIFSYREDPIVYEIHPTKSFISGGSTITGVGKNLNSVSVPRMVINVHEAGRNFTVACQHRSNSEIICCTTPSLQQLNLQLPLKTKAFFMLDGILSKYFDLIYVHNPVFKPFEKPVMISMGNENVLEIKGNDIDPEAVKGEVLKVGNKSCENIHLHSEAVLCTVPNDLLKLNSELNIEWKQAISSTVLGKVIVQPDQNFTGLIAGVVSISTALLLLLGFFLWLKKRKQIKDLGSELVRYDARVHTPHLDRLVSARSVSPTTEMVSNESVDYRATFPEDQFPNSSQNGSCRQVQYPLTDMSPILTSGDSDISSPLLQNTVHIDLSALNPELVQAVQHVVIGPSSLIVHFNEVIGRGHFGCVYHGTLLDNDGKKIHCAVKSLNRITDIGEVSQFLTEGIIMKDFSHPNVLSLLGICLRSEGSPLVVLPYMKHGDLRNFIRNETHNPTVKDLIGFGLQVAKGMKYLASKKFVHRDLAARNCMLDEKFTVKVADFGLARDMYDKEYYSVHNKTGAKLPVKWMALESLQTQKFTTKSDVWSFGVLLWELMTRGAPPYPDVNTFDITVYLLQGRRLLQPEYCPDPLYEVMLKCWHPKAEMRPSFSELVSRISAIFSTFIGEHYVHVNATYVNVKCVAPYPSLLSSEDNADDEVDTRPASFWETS
Description: Inhibition of c-MET (unknown origin)

[4] = test system: HCCLM3; assay: Cytotoxicity against human HCCLM3 cells assessed as cell growth inhibition incubated for 48 hrs by MTT assay; format: functional, cell-based; settings: HCCLM3, 48 h
[5] = test system: HCC827; assay: Antiproliferative activity against human HCC827 cells; format: functional, cell-based
[6] = test system: NCI-H1975; assay: Antiproliferative activity against human NCI-H1975 cells assessed as reduction in cell viability incubated for 48 hrs by MTT assay; format: functional, cell-based; settings: NCI-H1975, 48 h
[7] = target: ALK tyrosine kinase receptor (Homo sapiens, UniProt Q9UM73); assay: Inhibition of ALK (unknown origin)
Sequence of ALK tyrosine kinase receptor (Q9UM73 whole entry): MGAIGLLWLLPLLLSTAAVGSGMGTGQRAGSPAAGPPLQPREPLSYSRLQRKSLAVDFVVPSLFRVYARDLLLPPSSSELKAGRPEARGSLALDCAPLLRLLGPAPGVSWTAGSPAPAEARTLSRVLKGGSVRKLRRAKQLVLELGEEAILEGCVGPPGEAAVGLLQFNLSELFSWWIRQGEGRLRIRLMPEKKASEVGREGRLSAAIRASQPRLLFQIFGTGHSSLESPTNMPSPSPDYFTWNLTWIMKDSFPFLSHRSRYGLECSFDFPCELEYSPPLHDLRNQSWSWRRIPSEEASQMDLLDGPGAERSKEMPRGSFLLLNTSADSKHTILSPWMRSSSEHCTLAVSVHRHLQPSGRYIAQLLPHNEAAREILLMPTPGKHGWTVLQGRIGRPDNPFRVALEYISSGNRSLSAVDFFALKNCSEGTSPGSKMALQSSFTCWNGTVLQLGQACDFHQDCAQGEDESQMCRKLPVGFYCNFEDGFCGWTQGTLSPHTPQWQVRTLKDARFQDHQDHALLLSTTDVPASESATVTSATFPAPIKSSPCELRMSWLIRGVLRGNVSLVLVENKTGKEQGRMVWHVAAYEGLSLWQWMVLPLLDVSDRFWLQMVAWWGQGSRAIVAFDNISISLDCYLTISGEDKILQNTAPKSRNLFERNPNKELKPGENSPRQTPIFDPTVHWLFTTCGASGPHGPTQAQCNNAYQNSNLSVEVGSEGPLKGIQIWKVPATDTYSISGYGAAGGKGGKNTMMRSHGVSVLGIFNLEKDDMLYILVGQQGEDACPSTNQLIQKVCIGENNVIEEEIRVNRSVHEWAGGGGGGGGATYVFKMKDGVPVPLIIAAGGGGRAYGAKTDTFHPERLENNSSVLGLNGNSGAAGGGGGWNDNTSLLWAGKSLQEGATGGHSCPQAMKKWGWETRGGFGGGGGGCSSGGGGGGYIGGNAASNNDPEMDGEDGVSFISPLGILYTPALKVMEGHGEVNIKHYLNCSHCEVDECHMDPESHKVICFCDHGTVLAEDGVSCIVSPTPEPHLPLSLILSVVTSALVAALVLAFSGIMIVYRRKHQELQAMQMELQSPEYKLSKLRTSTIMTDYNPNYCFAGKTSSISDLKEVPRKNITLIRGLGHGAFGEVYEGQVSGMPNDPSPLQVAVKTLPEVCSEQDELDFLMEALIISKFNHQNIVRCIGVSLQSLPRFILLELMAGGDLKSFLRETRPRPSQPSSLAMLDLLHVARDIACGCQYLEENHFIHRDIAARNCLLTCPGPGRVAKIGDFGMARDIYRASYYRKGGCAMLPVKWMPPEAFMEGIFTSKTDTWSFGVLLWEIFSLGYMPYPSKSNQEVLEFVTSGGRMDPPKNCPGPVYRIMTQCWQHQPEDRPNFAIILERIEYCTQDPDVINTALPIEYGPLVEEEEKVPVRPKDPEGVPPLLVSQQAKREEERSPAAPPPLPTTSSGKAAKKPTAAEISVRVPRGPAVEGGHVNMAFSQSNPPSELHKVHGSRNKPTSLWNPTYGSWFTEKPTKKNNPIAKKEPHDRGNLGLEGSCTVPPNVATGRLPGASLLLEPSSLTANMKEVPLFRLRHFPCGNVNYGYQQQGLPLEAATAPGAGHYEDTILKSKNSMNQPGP

[8] = test system: A-431; assay: Antiproliferative activity against human A-431 cells assessed as reduction in cell viability incubated for 24 hrs by MTT assay; format: functional, cell-based; settings: A-431, 24 h
[9] = test system: A549; assay: Antiproliferative activity against human A549 cells assessed as reduction in cell viability incubated for 72 hrs by MTT assay; format: functional, cell-based; settings: A549, 72 h
[10] = test system: PC-9; assay: Antiproliferative activity against human PC-9 cells assessed as reduction in cell growth incubated for 72 hrs by MTT assay; format: functional, cell-based; settings: PC-9, 72 h
[11] = test system: MCF7; assay: Antiproliferative activity against human MCF7 cells assessed as reduction in cell viability incubated for 24 hrs by MTT assay; format: functional, cell-based; settings: MCF7, 24 h
[12] = test system: HT-29; assay: Antiproliferative activity against human HT-29 cells assessed as reduction in cell viability incubated for 24 hrs by MTT assay; format: functional, cell-based; settings: HT-29, 24 h
[13] = test system: MDA-MB-231; assay: Antiproliferative activity against human MDA-MB-231 cells assessed as reduction in cell viability incubated for 24 hrs by MTT assay; format: functional, cell-based; settings: MDA-MB-231, 24 h
[14] = target: Prostaglandin G/H synthase 2 (Homo sapiens, UniProt P35354); assay: Inhibition of COX-2 (unknown origin)
Sequence of Prostaglandin G/H synthase 2 (P35354 whole entry): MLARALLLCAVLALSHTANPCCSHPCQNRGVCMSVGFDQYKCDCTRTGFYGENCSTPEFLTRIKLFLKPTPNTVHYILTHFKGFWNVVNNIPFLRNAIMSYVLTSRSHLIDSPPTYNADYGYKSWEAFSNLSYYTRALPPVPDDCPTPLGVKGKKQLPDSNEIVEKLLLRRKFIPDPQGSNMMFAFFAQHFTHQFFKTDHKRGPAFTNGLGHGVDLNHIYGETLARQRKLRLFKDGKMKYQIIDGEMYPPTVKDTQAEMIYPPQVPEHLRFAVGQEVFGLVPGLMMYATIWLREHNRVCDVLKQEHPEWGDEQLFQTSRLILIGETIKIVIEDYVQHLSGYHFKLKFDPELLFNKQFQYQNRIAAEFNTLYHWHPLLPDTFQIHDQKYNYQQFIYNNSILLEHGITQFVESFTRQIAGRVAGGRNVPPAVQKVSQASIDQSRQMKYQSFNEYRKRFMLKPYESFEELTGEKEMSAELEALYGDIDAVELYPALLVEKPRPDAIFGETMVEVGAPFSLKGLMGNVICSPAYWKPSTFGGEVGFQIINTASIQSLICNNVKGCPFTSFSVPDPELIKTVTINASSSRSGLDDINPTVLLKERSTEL

[15] = test system: COLO 205; assay: Antiproliferative activity against human COLO 205 cells assessed as reduction in cell viability incubated for 24 hrs by MTT assay; format: functional, cell-based; settings: COLO 205, 24 h
[16] = test system: A549; assay: Antiproliferative activity against human A549 cells assessed as reduction in cell viability incubated for 24 hrs by MTT assay; format: functional, cell-based; settings: A549, 24 h
[17] = test system: MHCC97H; assay: Antiproliferative activity against human MHCC97H cells assessed as cell growth inhibition incubated for 48 hrs by MTT assay; format: functional, cell-based
[18] = test system: MKN-45; assay: Antiproliferative activity against human MKN-45 cells assessed as cell growth inhibition incubated for 48 hrs by MTT assay; format: functional, cell-based; settings: MKN-45, 48 h
[19] = target: T1, Tyrosine-protein kinase receptor UFO (Homo sapiens, UniProt P30530); assay: Inhibition of AXL (unknown origin)
T1 sequence (P30530 whole entry): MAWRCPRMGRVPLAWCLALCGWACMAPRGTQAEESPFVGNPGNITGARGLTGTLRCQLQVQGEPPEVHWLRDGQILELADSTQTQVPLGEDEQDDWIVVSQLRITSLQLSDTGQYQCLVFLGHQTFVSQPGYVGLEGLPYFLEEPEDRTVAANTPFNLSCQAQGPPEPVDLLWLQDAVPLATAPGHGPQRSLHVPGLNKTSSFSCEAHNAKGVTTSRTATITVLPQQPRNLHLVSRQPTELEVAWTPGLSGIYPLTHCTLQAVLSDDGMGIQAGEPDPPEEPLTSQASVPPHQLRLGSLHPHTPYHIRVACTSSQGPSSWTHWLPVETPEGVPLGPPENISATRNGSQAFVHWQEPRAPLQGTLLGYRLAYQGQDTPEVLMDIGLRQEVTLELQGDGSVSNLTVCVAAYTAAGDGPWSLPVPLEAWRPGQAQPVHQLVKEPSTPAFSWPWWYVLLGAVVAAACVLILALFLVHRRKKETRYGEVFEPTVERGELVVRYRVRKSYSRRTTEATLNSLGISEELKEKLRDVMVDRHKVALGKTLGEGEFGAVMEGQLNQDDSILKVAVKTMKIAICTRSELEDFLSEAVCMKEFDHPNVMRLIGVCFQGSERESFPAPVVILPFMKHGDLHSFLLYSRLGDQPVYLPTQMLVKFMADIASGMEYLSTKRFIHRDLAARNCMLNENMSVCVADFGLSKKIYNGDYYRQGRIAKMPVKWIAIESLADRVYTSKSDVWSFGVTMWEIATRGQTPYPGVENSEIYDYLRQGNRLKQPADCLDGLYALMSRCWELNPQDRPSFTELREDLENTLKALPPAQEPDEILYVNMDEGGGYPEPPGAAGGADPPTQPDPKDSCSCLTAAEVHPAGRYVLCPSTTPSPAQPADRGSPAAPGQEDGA

Compound: C[C@@H](Oc1cc(C(=O)Nc2ccc(C(=O)N3CCN(C)CC3)cc2)nnc1N)c1c(Cl)ccc(F)c1Cl
IC50 [1]: 77 nM

Compound: Fc1ccc(Cl)c(Sc2n[nH]c3ncc(-c4cnn(C5CCNCC5)c4)cc23)c1Cl
IC50 [3]: 14.6 nM

Compound: CN(C)CCC[Se]c1cnc(-c2cccc(Cn3nc(-c4cccc(C#N)c4)ccc3=O)c2)nc1
IC50 [4]: 13 nM

Compound: c1coc(COCC2Cc3cn4ncnc(-c5cnn(C6CCNCC6)c5)c4c3C2)c1 (stereo not drawn)
IC50 [6]: 1.3 nM
IC50 [7]: 0.33 nM
IC50 [8]: 699 nM

Compound: Clc1ncccc1COCC1Cc2cn3ncnc(-c4cnn(C5CCNCC5)c4)c3c2C1 (stereo not drawn)
IC50 [6]: 39.2 nM
IC50 [7]: 1.88 nM
IC50 [8]: > 1000 nM

Compound: CNC(=O)c1ccccc1Nc1nc(Nc2ccc3c(c2)[C@@H](C)CNCC3)ncc1Cl
IC50 [7]: 7.9 nM
IC50 [3]: 6.4 nM

Compound: c1cncc(COCC2Cc3cn4ncnc(-c5cnn(C6CCNCC6)c5)c4c3C2)c1 (stereo not drawn)
IC50 [6]: 45.2 nM
IC50 [7]: 1.59 nM
IC50 [8]: > 1000 nM

Compound: C[C@@H](Oc1cc(C(=O)Nc2ccc(=O)n(C)c2)nnc1N)c1c(Cl)ccc(F)c1Cl
IC50 [7]: 60 nM
IC50 [3]: 40 nM

Compound: [2H][C@@](C)(c1cccc(-c2ncc(OCC3CCN(C)CC3)cn2)c1)n1nc(-c2cccc(C#N)c2)ccc1=O
IC50 [17]: 4.3 nM
IC50 [18]: 1 nM

Compound: O=C(Nc1ccc(F)cc1)C1(C(=O)Nc2ccc(Oc3ncnn4cc(-c5cnn(CCO)c5)cc34)cc2)CC1
IC50 [19]: 8.6 nM

Next, values leading:

IC50 [2]: 500 nM
Compound: O=C(Nc1cccc(-c2nc(-c3ccc(NC(=O)c4cccnc4)cc3Cl)no2)c1)Nc1ccc(NC(=O)C2CC2)c(C(F)(F)F)c1

IC50 [5]: < 100 nM
Compound: COCCN1CCC(C#Cc2c(Oc3ccc(NC(=O)c4ccnn(-c5ccc(F)cc5)c4=O)cc3F)ccnc2N)CC1

IC50 [9]: 1060 nM
IC50 [10]: 1050 nM
Compound: C=CC(=O)Nc1cc2c(Oc3ccc(NC(=O)c4c(C)n(C)n(-c5ccccc5)c4=O)cc3F)ncnc2cc1OC

IC50 [11]: 7.07 µM
IC50 [12]: 13.6 µM
IC50 [13]: 43 µM
IC50 [14]: 2430 nM
IC50 [15]: < 100 nM
IC50 [16]: 43.8 µM
IC50 [3]: 7900 nM
Compound: O=C(/C=C/c1ccc(F)cc1)c1cccc(NC(=O)c2ccc(Cl)cc2)c1

IC50 [5]: < 100 nM
Compound: CC(C)N1CCC(CC#Cc2c(Oc3ccc(NC(=O)c4cn(C(C)C)c(=O)n(-c5ccc(F)cc5)c4=O)cc3F)ccnc2N)CC1

IC50 [5]: < 100 nM
Compound: CC(C)n1cc(C(=O)Nc2ccc(Oc3ccnc(N)c3C#CC(=O)N3CCOCC3)c(F)c2)c(=O)n(-c2ccc(F)cc2)c1=O

IC50 [5]: < 100 nM
Compound: COCCN1CCC(C#Cc2c(Oc3ccc(NC(=O)c4cn(C(C)C)c(=O)n(-c5ccc(F)cc5)c4=O)cc3F)ccnc2N)CC1

IC50 [11]: 15.7 µM
IC50 [12]: 10.4 µM
IC50 [13]: 7.93 µM
IC50 [14]: 1620 nM
IC50 [15]: < 100 nM
IC50 [16]: 37 µM
IC50 [3]: 6610 nM
Compound: Cc1ccc(C(=O)Nc2cccc(C(=O)/C=C/c3ccc(F)cc3)c2)cc1

IC50 [5]: < 100 nM
Compound: CN1CCN(CC#Cc2c(Oc3ccc(NC(=O)c4ccnn(-c5ccc(F)cc5)c4=O)cc3F)ccnc2N)CC1

IC50 [5]: < 100 nM
Compound: CC(C)n1cc(C(=O)Nc2ccc(Oc3ccnc(N)c3C#CC(C)(C)N3CCOCC3)c(F)c2)c(=O)n(-c2ccc(F)cc2)c1=O

IC50 [19]: 26 nM
Compound: Cn1cc(-c2cc3c(Oc4ccc(NC(=O)C5(C(=O)Nc6ccc(F)cc6)CC5)cc4)ncnn3c2)cn1
